In US7378375B1, “Substituted pyridine herbicides” (Syngenta Crop Protection, Inc., priority 2000, dated 2008):

Key:
[1] = tested on: Monocotyledonous and dicotyledonous test plants; experiment: Herbicidal action before emergence of the plants (pre-emergence action), greenhouse pot test, 9-level rating after 4 weeks; type: in vivo; parameters: key: 9-level scale: 1 = complete damage, 9 = no effect; conditions: 250 g/ha, rated after 4 weeks, 9-level scale
Description: Herbicidal Action Before Emergence of the Plants (Pre-Emergence Action)
(§1) Monocotyledonous and dicotyledonous test plants are sown in standard soil in pots. Immediately after sowing, the test substances are sprayed on at an optimum dosage (500 l of water/ha) as an aqueous suspension (prepared from a wettable powder (example F3, b) according to WO 97/34485) or emulsion (prepared from an emulsion concentrate (example F1, c) according to WO 97/34485). The test plants are then grown under optimum conditions in a greenhouse.
After a test period of 4 weeks, the test is evaluated using a 9-level scale of ratings (1=complete damage, 9=no effect). Ratings of 1 to 4 (in particular 1 to 3) mean good to very good herbicidal action.

[2] = tested on: Monocotyledonous and dicotyledonous test plants; experiment: Post-emergence herbicidal action, greenhouse pot test, sprayed at the 2- to 3-leaf stage, 9-level rating after 2 to 3 weeks; type: in vivo; parameters: key: 9-level scale: 1 = complete damage, 9 = no effect; conditions: 250 g/ha, rated after 2 to 3 weeks, 9-level scale
Description: Post-Emergence Herbicidal Action
as §1, with “grown” for “sown”, “At the 2- to 3-leaf stage of the test plants,” for “Immediately after sowing,”, “sprayed” for “sprayed on”, “at” for “at an”, “grown further” for “grown”
After a test period of 2 to 3 weeks, the test is evaluated using a 9-level scale of rating (1=complete damage, 9=no effect). Ratings of 1 to 4 (in particular 1 to 3) mean good to very good herbicidal action.

Structure (SMILES) | Pre-emergence action rating, Abutilon [1] | Pre-emergence action rating, Amaranthus [1] | Pre-emergence action rating, Chenop. [1] | Pre-emergence action rating, Digitaria [1] | Pre-emergence action rating, Echino. [1] | Pre-emergence action rating, Panicum [1] | Post-emergence action rating, Abutilon [2] | Post-emergence action rating, Amaranth [2] | Post-emergence action rating, Chenop. [2] | Post-emergence action rating, Digitaria [2] | Post-emergence action rating, Echino. [2] | Post-emergence action rating, Ipopur. [2] | Post-emergence action rating, Panicum [2] | Post-emergence action rating, Xanth. [2]
COCCOCc1nc(C(F)(F)F)ccc1C(=O)C1=C(O)C2CCC(C2)C1=O (stereo not drawn) [A10-B52, (H3), 4-Hydroxy-3-[2-(2-methoxyethoxymethyl)-6-trifluoromethylpyridine-3-carbonyl]-bicyclo[3.2.1]oct-3-en-2-one] | 1 | 1 | 1 | 1 | 1 | 1 | 1 | 2 | 1 | 1 | 2 | 2 | 1 | 2
COCCOCc1nc(C(F)(F)F)ccc1C(=O)C1=C(O)CC(C)CC1=O (stereo not drawn) [A10-B111] | 1 | 1 | – | 1 | 1 | 1 | 3 | 2 | 1 | 2 | 3 | 3 | 2 | 3
COCCOCc1nc(C(F)(F)F)ccc1C(=O)c1c(C)nn(C)c1O [A10-C2 (H6), (5-Hydroxy-1,3-dimethyl-1H-pyrazol-4-yl)-[2-(2-methoxyethoxymethyl)-6-trifluoromethylpyridin-3-yl]methanone] | 1 | 2 | 1 | 3 | 3 | 3 | 2 | 1 | 1 | 4 | 3 | 3 | 2 | 1
COCCOCc1nc(C(F)(F)F)ccc1C(=O)c1cnn(C)c1O [A10-C5] | 1 | 1 | 1 | 3 | 1 | 2 | 2 | 1 | 1 | 2 | 2 | 2 | 2 | 2
COCCOCc1nc(C(F)(F)F)ccc1C(=O)c1cnn(C)c1OS(C)(=O)=O [A10-C28] | 1 | 1 | 1 | 3 | 2 | 1 | 3 | 2 | 1 | 4 | 4 | 3 | 4 | 3
COCCOCc1nc(C(F)(F)F)ccc1C(=O)c1cnn(C)c1OS(=O)(=O)c1ccc(C)cc1 [A10-C29] | 1 | 1 | – | 2 | 1 | 2 | 2 | 2 | 1 | 3 | 3 | 1 | 2 | 2
CCOCCOCc1nc(C(F)(F)F)ccc1C(=O)C1=C(O)C2CCC(C2)C1=O (stereo not drawn) [A11-B52] | 1 | 2 | 1 | 1 | 1 | 1 | 2 | 1 | 1 | 1 | 2 | 2 | 1 | 2
CCOCCOCc1nc(C(F)(F)F)ccc1C(=O)c1cnn(C)c1O [A11-C5] | 1 | 1 | 1 | 2 | 1 | 1 | 2 | 2 | 1 | 2 | 2 | 2 | 1 | 2
CCOCCOCc1nc(C(F)(F)F)ccc1C(=O)c1cnn(C)c1OS(C)(=O)=O [A11-C28] | 2 | 1 | 1 | 2 | 1 | 2 | 3 | 2 | 1 | 4 | 4 | 3 | 3 | 3
C#CCOCc1nc(C(F)(F)F)ccc1C(=O)C1=C(O)C2CCC(C2)C1=O (stereo not drawn) [A18-B52] | 2 | 2 | – | 1 | 1 | 1 | 1 | 1 | 1 | 1 | 2 | 2 | 1 | 2
C=CCOCc1nc(C(F)(F)F)ccc1C(=O)C1=C(O)C2CCC(C2)C1=O (stereo not drawn) [A19-B52] | 1 | 2 | – | 1 | 1 | 1 | 1 | 1 | 1 | 1 | 2 | 1 | 1 | 2
CC#CCOCc1nc(C(F)(F)F)ccc1C(=O)C1=C(O)C2CCC(C2)C1=O (stereo not drawn) [A20-B52] | 3 | 3 | – | 1 | 1 | 1 | 2 | 2 | 1 | 2 | 2 | 2 | 1 | 2
CC#CCOCc1nc(C(F)(F)F)ccc1C(=O)c1cnn(C)c1O [A20-C5] | 1 | 1 | 1 | 2 | 2 | 1 | 3 | 2 | 1 | 3 | 4 | 3 | 2 | 3
